Laboratory results taken from patent US20230357189A1, “MODIFIED FLUOROQUINOLONES AND USES THEREOF” (Technion Research & Development Foundation Limited, priority 2021, published 2023).
In brackets after ≈: the same amount, converted by molar mass.

Tests used:
[1] = tested on: Staphylococcus Epidermidis; test: Antibacterial activity, MIC by double-microdilution method; assay type: cell-based; details: for MIC: Table 2, read-out: Gram-positive MIC c; for Gram-positive MIC c: Table 2
E. coli DNA gyrase [2] = target: T1, E. coli DNA gyrase (Escherichia coli, UniProt P0AES4+P0AES6); test: E. coli Gyrase-DNA supercoiling assay; assay type: biochemical; details: supercoiling of relaxed pHOT-1 plasmid in presence of ATP; 37° C., 60 minutes
T1 construct: purchased TopoGEN
Description: The DNA supercoiling reactions were based on the manufacturer protocol (TopoGEN). The amount of DNA gyrase used in each assay was optimized by testing various dilutions of the stock. The amount sufficient to supercoil 250 nanograms (ng) of the substrate in 1 hour at 37° C. was then used for testing the compounds (1.1 U as defined by manufacturer). Assays (30 μL) contained 250 nanograms of relaxed pHOT1 plasmid DNA in Tris-HCl buffer (35 mM), pH 7.5, containing KCl (24 mM), MgCl2 (4 mM), DTT (2 mM), Spermidine (1.8 mM), ATP (1 mM), 6.5% (w/v) glycerol and bovine serum albumin (0.1 mg/ml). Reactions were incubated at 37° C. for 60 minutes. Reaction mixtures were stopped by the addition of 30 μL of loading buffer (40% sucrose, 100 mM Tris·HCl (pH 7.5), 1 mM EDTA, 0.5 mg×mL^−1 bromophenol blue) and worked up using 30 μL of 24:1 chloroform/isoamyl alcohol mixture; the aqueous layer was then analyzed using electrophoresis.
Electrophoresis, gel staining, DNA visualization and DNA quantification were performed as described for the DNA cleavage assays.

Escherichia coli 25922 = test: Antibacterial activity, MIC by double-microdilution method; assay type: cell-based; details: Table 2, Escherichia coli 25922; for MIC: read-out: Gram-negative MIC b
[3] = tested on: Escherichia coli R477-100; test: as above; assay type: cell-based; details: for MIC: R477100, read-out: Gram-negative MIC a; for MIC / Gram-negative MIC a: Table 2, without DTT
Bacillus Subtilis = test: as above; assay type: cell-based; details: Bacillus Subtilis; for MIC / Gram-positive MIC d: Table 2; for MIC: read-out: Gram-positive MIC d
E. coli DNA gyrase [4] = target: T1, E. coli DNA gyrase; test: E. coli Gyrase-DNA cleavage assay; assay type: biochemical; details: absence of ATP; for linearization of supercoiled DNA with DNA gyrase, after Proteinase K: second incubation with SDS and Proteinase K
Description: E. coli gyrase enzyme was purchased from TopoGEN and the DNA cleavage reactions were based on the protocol of Inspiralis. Assays (30 μL) contained supercoiled (+) pHOT1 plasmid (200 nanograms) and DNA gyrase (5 U as defined by manufacturer) in 35 mM Tris-HCl (pH 7.5), 24 mM KCl, 4 mM MgCl2, 2 mM DTT, 1.8 mM Spermidine, 6.5% (w/v) glycerol and 0.1 mg/mL bovine serum albumin. Reactions were incubated at 37° C. for 60 minutes. Enzyme-DNA cleavage complexes were trapped by adding 3 μL of 2% SDS. Following this, 1.5 μL of 10 mg/mL Proteinase K (Sigma-Aldrich) was added (where relevant) and the reaction mixtures were incubated at 37° C. for 30 minutes to digest the enzyme gyrase. Samples were mixed with 30 μL of loading buffer (40% sucrose, 100 mM Tris-HCl (pH 7.5), 1 mM EDTA, 0.5 mg-ml-1 bromophenol blue) and worked up using 30 μL of 24:1 chloroform/isoamyl alcohol mixture; the aqueous layer was then analyzed using electrophoresis. Electrophoresis, gel staining, DNA visualization and DNA quantification were performed as described for the DNA cleavage assays. DNA double stranded cleavage was monitored by the conversion of supercoiled plasmid to linear DNA and quantified in comparison to a control drug-free reaction.
To investigate the mechanism of inhibition, a DNA gyrase-induced DNA cleavage assay was performed in the absence of ATP. In this assay, the production of linear DNA from supercoiled DNA is measured as a function of compound concentration. […] Consequently, for the purposes of this assay, it is necessary to perform a second incubation of the reaction mixture with SDS and Proteinase K, which enables the digestion of the DNA gyrase enzyme and thereby ‘frees’ the linear DNA (Form III) so that it moves during electrophoresis.

[5] = tested on: supercoiled (+) pHOT-1 plasmid DNA; test: DNA cleavage assay (gel electrophoresis); assay type: biochemical; details: for DNase activity (cleavage of supercoiled plasmid, form I to form II): absence of adjuvants, HEPES buffer (50 mM, pH 7.4), 5 hours
Description: Removal of Ligands Prior to Electrophoresis was performed when more than 100 μM of Cu(II)-ligand or Co(III) ligand (at any concentration) complexes were employed that is, for DNA cleavage assays that were performed in the absence of any adjuvants. An Amberlyst® 15 (Sigma Aldrich) ion-exchange resin was prepared according to the reported literature [Hettich et al. J. Am. Chem. Soc. 1997, 119 (24), 5638-5647] and stored at −20° C. Before use, 0.5 gram of the exchanger was mixed with 250 μL of water. After stopping the DNA-cleavage reaction by addition of EDTA (54 mM, 15 minutes incubation at 37° C.), 10 μL of the exchanger suspension was added, vortexed, and incubated at 37° C. for 15 minutes before centrifugation and electrophoresis.
DNA cleavage activity of the tested Complexes towards supercoiled (+) pHOT-1 plasmid DNA (TopoGEN) was monitored by gel electrophoresis. In a typical experiment, plasmid DNA (200 ng, […]) in HEPES buffer (50 mM, pH 7.4) was mixed with different concentrations of a tested metal complex in the presence or absence of ascorbic acid (0.32 mM). All stock solutions of buffers and of the metal complexes were prepared using HPLC grade water (ChromAR®). Molecular biology reagent grade water (Sigma) was added up to a total reaction volume of 30 μL before incubation for a given time. For the ascorbic acid assays, the reaction was quenched immediately after incubation with EDTA (54 mM). For analysis, 10 μL of loading buffer (40% sucrose, 100 mM Tris-HCl (pH 7.5), 1 mM EDTA, 0.5 mg·mL^−1 bromophenol blue) was added to the incubated solution and loaded onto an agarose (SeaKem LE) gel [1% in TAE×1 buffer (40 mM Tris, 20 mM acetic acid, 1 mM EDTA)]. Electrophoresis was carried out at 60 V for 2 hours. Gels were stained with 1 μg·mL^−1 ethidium bromide for 30 minutes and de-stained in TAE×1 buffer. DNA bands were visualized with medium-range ultraviolet light using Bio-Rad Gel Doc XR+ imaging system. The quantity of different DNA forms (I or II) was estimated using ImageJ software.
Chem. 2015, 2015 (28), 4722-4730; Kashiba-Iwatsuki et al. FEBS Lett. 1996, 389 (2), 149-15].
The copper complex of compound 2 (2-Cu(II)) was used as the positive control in these assays.

[6] = tested on: Gram-negative and Gram-positive bacteria; test: Comparative antibacterial activity, all tested bacteria; assay type: cell-based; details: for antibacterial activity (in words): MIC, Table 2 and 3
Description: Comparative antibacterial activities were determined by measuring the MIC values by using the double-microdilution method according to the National Committee for Clinical Laboratory Standards (NCCLS). The Luria-Bertani growth medium and polypropylene 96-well plates (Thermo) were used unless otherwise stated. All the experiments were performed in triplicate, and analogous results were obtained in three different experiments.
Compounds 1-6 and their Cu(II) and Co(III) complexes, as well as the pendant-bearing compounds 19-23 and 26 were tested for their comparative antibacterial activity by determining MIC values against two Gram-negative E. coli strains (AR477-100 and 25922) and two Gram-positive strains, Staphylococcus Epidermidis, and Bacillus Subtilis.

T1 sequence (P0AES4 whole entry, one chain of several): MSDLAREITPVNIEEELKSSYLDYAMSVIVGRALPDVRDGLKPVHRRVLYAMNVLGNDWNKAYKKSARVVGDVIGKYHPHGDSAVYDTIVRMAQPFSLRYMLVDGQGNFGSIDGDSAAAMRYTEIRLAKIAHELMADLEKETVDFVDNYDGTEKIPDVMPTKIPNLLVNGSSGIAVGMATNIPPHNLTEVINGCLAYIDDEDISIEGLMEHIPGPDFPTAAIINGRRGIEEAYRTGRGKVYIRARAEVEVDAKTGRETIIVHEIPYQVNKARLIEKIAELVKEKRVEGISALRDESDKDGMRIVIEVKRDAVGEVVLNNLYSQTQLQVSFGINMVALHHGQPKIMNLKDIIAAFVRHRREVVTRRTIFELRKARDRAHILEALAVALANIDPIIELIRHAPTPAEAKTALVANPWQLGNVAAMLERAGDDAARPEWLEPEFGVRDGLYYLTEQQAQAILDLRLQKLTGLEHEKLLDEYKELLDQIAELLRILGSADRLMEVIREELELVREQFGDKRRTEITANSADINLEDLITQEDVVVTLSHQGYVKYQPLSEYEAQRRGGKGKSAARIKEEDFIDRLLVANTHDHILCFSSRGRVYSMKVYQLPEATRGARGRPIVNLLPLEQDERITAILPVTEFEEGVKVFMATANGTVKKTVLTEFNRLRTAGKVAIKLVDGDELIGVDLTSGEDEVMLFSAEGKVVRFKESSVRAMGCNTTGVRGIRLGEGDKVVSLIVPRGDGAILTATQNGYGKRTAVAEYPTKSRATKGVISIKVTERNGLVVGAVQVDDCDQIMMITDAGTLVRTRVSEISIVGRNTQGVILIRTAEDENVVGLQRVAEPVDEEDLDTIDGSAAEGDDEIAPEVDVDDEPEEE

Compound	MIC [1] [µg/mL]	IC50 (E. coli DNA gyrase [2]) [nM]	MIC (Escherichia coli 25922) [µg/mL]	MIC ([3]; Escherichia coli R477-100) [µg/mL]	MIC (Bacillus Subtilis) [µg/mL]	linearization of supercoiled DNA with DNA gyrase, after Proteinase K (E. coli DNA gyrase [4])	Gram-positive MIC c [1] [µg/mL]	DNase activity (cleavage of supercoiled plasmid, form I to form II) [5]	Gram-negative MIC b (Escherichia coli 25922) [µg/mL]	Gram-negative MIC a ([3]; Escherichia coli R477-100) [µg/mL]	Gram-positive MIC d (Bacillus Subtilis) [µg/mL]	antibacterial activity (in words) [6]	further results
O=C(O)c1cn(C2CC2)c2cc(N3CCN(Cc4ccc(CN5CCNCCNCCNCC5)cc4)CC3)c(F)cc2c1=O [Compound 4]	6 to 12 (≈ 9.9 to 19.8 µM)	150 ± 10	12 to 24 (≈ 19.8 to 39.6 µM)	12 to 24 (≈ 19.8 to 39.6 µM)	6 to 12 (≈ 9.9 to 19.8 µM)	significant linearization of DNA							
O.O=C(O)c1cn(C2CC2)c2cc(N3CCN(CCCCCCN4CCNCCNCCNCC4)CC3)c(F)cc2c1=O.[Cu+2] [1-Cu(II)]		100 ± 10				linearized the DNA in a similar manner to the metal-free ligands	24	very significant enhancement in the rates of DNA cleavage	48	24	48		concentration giving almost complete smearing of the DNA (multiply nicked DNA) ([5]; ascorbic acid (0.32 mM), HEPES pH 7.4, 2 hours): > 40 µM; improvement of MIC in the presence of DTT ([3]; 10 mM DTT vs without DTT, Gram-negative E. coli R477-100): no change whatsoever; generation of linear DNA with DNA gyrase, without Proteinase K (E. coli DNA gyrase [4]; without Proteinase K treatment, buffer with DTT): not able to generate linear DNA at any concentration
O.O=C(O)c1cn(C2CC2)c2cc(N3CCN(Cc4ccc(CCN5CCNCCNCCNCC5)cc4)CC3)c(F)cc2c1=O.[Co+3].[OH-] [5-Co(III)]							3		1.5	3	3	slightly higher activity	
N=C(N)NCCN1CCNCCNCCN(CCCCc2ccc(CN3CCN(c4cc5c(cc4F)c(=O)c(C(=O)O)cn5C4CC4)CC3)cc2)CC1 [Compound 22]							6	significant DNase activity	3	3	1.5	slightly higher activity	better antibacterial activity compared to all the other pendant-bearing metal-free ligands ([6]; Table 2 MIC): 4-8 fold; Gram-negative MIC, DTT 10 mM ([3]; Escherichia coli R477-100, DTT 10 mM): 3 µg/mL; Gram-negative MIC, DTT 0 mM ([3]; Table 3, Escherichia coli R477-100, DTT 0 mM): 3 µg/mL; Gram-negative MIC, DTT 2 mM ([3]; Table 3, Escherichia coli R477-100, DTT 2 mM): 3 µg/mL; Gram-positive MIC, DTT 0 mM (Bacillus Subtilis; Table 3, DTT 0 mM): 1.5 µg/mL; Gram-positive MIC, DTT 2 mM (Bacillus Subtilis; Table 3, DTT 2 mM): 1.5 µg/mL; Gram-positive MIC, DTT 10 mM (Bacillus Subtilis; Table 3, DTT 10 mM): 1.5 µg/mL
O=C(O)c1cn(C2CC2)c2cc(N3CCN(CCCCCCN4CCNCCNCCNCC4)CC3)c(F)cc2c1=O [Compound 1]	12 (≈ 20.5 µM)	130 ± 30	24 (≈ 41 µM)	12 (≈ 20.5 µM)	12 (≈ 20.5 µM)	significant linearization of DNA							
